Experimental data published in patent publication US20010002252A1, “TOOTH WHITENING PREPARATIONS” (priority 1994, published 2001).

Assay: Tooth whitening by brushing of extracted bovine teeth with toothpaste slurry, colorimeter L value
Experimental: Tooth whitening was measured by the following process:
Whitening was determined using a modification to a system normally employed in the dental arts for determining the abrasivity of dentifrices.
Bovine jaws were obtained at a local abattoir and the teeth were extracted in their native state; no pre-cleaning was done. Teeth were mounted in a cap with dental acrylic so as to fit the format of a colorimeter and the brushing instrument: a detailed description is given below. An initial brushing was done with a slurry of Crest Regular toothpaste and an Oral B40, medium bristle, toothbrush. Then an initial L value was determined on a colorimeter (Hunter). This was designated as the initial whiteness value. The wear tester device was manufactured by Ramè-Hart, of Mountain Lakes, N.J. This machine has often been used to test the abrasivity of dental preparations. Tooth brushes were mounted and the teeth and brushes aligned. A 1:3 slurry of paste and water was poured into the trays and brushing commenced for a total of six hours. The slurry was replaced hourly. At 3 and 6 hours L value determinations were made. This was done by first rinsing the teeth with deionized water, then placing them in a closed container at 100% humidity for 1 hours, then taking a reading on the colorimeter to obtain a 3 hour and 6 hour L value.
Toothpaste slurries were tested for their whitening effect. […]

SMILES: O=P(O)(O)OP(=O)(O)OP(=O)(O)O [STP, sodium tripolyphosphate]
- tooth whitening as compared with the placebo base (10% or higher STP in Table I toothpaste base, 1:3 slurry of paste and water, brushing 6 hours, L value at 3 and 6 hours): superior tooth whitening
- pH at which the best whitening results were obtained (STP toothpaste slurries, pH adjusted with 3M NaOH or 3M HCl): around 8.0
